Results: US20100113484A1, “TREATING AGENT OF UROPATHY” (ASKA PHARMACEUTICAL CO., LTD., priority 2006, published 2010)
Where two headings read alike, the source gives them in different places.

Assays:
[1] = molecular target: T1, human recombinant PDE5 protein (Homo sapiens, UniProt O76074); test: Measurement of PDE5-inhibiting activity; format: biochemical
T1 construct: made in house; host or cells: COS-1 cells, transient transfection with pcDNA 3.1 (+); supernatant of the homogenate, not purified
Experimental: PCR condition: [94° C., 2 min]×1 cycle, [(94° C., 30 sec), (65° C., 30 sec), (68° C., 3 min)]×25 cycles, [68° C., 6 min]×1 cycle
Thus obtained hsPDE5A1 fragment was given a restricted enzymatic treatment with XBaI and EcoRI, and thereafter inserted into pcDNA 3.1 (+) expression vector (Invitrogen) to let it serve as a human PDE5 expression vector.
Human PDE5 expression vector-transformed Escherichia coli was mass incubated to produce a large amount of human PDE5 expression vector, which was transiently transfected into COS-1 cells, with LIPOFECTAMINE 2000 Reagent (GIBCO). The cells were homogenized in ice-cooled buffer A and centrifuged at 4° C., 14,000×g for 10 minutes. The supernatant was isolated to provide human recombinant PDE5 protein solution.

[2] = molecular target: T2, human recombinant PDE9 protein (Homo sapiens, UniProt O76083); test: Measurement of PDE9-inhibiting activity ([3H]-cGMP hydrolysis); format: biochemical
T2 construct: made in house; host or cells: COS-1 cells, transient transfection with pcDNA 3.1 (+); supernatant of the homogenate, not purified
T2 sequence (O76083 whole entry): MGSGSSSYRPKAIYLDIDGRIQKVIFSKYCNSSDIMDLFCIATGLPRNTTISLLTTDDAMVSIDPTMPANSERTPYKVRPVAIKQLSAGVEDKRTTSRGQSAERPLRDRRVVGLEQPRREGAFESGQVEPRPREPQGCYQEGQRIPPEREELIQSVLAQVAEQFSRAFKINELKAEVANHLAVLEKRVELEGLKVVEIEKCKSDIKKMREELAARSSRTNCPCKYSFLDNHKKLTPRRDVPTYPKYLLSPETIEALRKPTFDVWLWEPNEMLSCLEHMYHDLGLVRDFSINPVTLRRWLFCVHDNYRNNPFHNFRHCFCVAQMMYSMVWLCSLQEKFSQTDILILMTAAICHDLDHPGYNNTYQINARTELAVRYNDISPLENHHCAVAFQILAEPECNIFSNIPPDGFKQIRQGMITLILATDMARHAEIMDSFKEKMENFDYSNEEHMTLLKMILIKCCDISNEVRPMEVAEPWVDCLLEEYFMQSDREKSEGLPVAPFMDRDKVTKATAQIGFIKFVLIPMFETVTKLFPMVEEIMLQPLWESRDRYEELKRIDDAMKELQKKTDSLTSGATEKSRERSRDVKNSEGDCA
Experimental: Based on the base sequence of hsPDE9A1 registered with GenBank database (accession No.: AF048837), hsPDE9A1 fragment was amplified by polymerase chain reaction under the following conditions, using the following sequence (Amasham Pharmacia Biotech) as the primer and Human Prostate […] cDNA library (CLONTECH) as the template DNA, with Pfu Turbo DNA polymerase ([…]):
PCR condition: [95° C., 5 min]×1 cycle, [(95° C., 1 min), (58° C., 2 min), (72° C., 3 min)]×25 cycles, [72° C., 10 min]×1 cycle
Thus obtained hsPDE9A1 fragment was given a restricted enzymatic treatment with NheI and NotI, and thereafter inserted into pcDNA 3.1 (+) expression vector (Invitrogen) to let it serve as a human PDE9 expression vector.
Human PDE9 expression vector-transformed Escherichia coli was mass incubated to produce a large amount of human PDE9 expression vector, which was transiently transfected into COS-1 cells, with LIPOFECTAMINE 2000 Reagent (GIBCO). The cells were homogenized in ice-cooled buffer A (40 mmol/L Tris-HCl, pH7.5, 15 mmol/L benzamidine, 15 mmol/L 2-mercaptoethanol, 1 μg/mL Pepstatin A, 1 μg/mL Leupeptin, 5 mmol/L EDTA) and centrifuged at 4° C., 14,000×g for 10 minutes. The supernatant was isolated to provide human recombinant PDE9 protein solution.
This mixed solution was incubated at 30° C. for 30 minutes and the enzymatic reaction of PDE9 was terminated by heating the system in boiling water for 90 seconds. Returning the system to room temperature, 50 μL of Snake venom (SIGMA: 1 mg/mL) was added, followed by 10 minutes' incubation at 30° C., to convert the [^3H]-5′-GMP produced in the previous reaction to [^3H]-guanosine. […] Thereafter [^3H]-guanosine was eluted with 3 mL of 3 mol/L aqueous ammonia and its radiation activity was measured with liquid scintillation counter.
PDE9 inhibition of the tested compound can be calculated by the following formula: […]
From the percent inhibition at various concentration levels of each tested compound, its IC50 value against PDE9 can be determined.

[3] = system: partial urethra obstruction model in guinea pigs; test: Dysuria pathological model: partial urethra obstruction model, cystometry; format: in vivo, Hartley female guinea pigs; details: guinea pig, i.v.
Experimental: Three-four weeks old Hartley female guinea pigs (Japan SLC, Inc.) were given celiotomy under anesthesia with pentobarbital (30 mg/kg i.p.) and in their urethra to the peripheral side by 1-2 mm from the bladder neck, each a polyethylene tube of 1.4 mm in width and 2.0 mm in inner diameter was placed. After closing the wound, the guinea pigs were bred for at least 3 weeks to produce partial urethra obstruction model in guinea pigs in which occurrence of intravesical pressure rise not accompanied by micturition (uninhibited contraction) and residual urine were observed.
The model was catheterized under anesthesia with urethane (1 g/kg i.p.) at the apex of urinary bladder and right jugular vein for cystometrography and intravenous administration, respectively. The other end of the bladder catheter was connected to a pressure transducer and infusion pump via a three way stop-cock, and physiological saline was continuously infused into the bladder through the infusion pump at a rate of 0.4 mL/min to induce micturition reflex. Immediately after the micturition reflex was induced, infusion of physiological saline into the bladder was stopped. The intravesical pressure at the time the micturition reflex was induced was measured with the pressure transducer, and the obtained cystometrogram was recorded with pen recorder. The urine voided was collected with disposable type weighing dish and its weight was measured. Further the physiological saline remained in the bladder was sucked with syringe via the bladder catheter and the residual urine volume was measured. The operations of suspending the infusion of physiological saline upon induction of micturition reflex, and about 1 minute thereafter resuming the infusion of physiological saline to induce micturition reflex were repeated plural times (generally 4 times) to stabilize the micturition reflex.
After stabilizing the micturition reflex, a compound solution (prepared by dissolving the compound or methanesulfonic acid salt thereof in DMSO and diluting it with physiological saline or distilled water) or physiological saline was administered into the vein at a volume of 10 mL/kg over 4 minutes, and simultaneously the above-described micturition reflex operations were repeated until 30 minutes passed after initiation of the administration, while measuring the intravesical pressure and the volumes of micturition and residual urine. Also the frequency of uninhibited contraction occurrence during the above-described operations was recorded.

[4] = Tables A and C, read-out: Inhibiting Activity (IC50 value) PDE5
[5] = Tables A and C, read-out: Inhibiting Activity (IC50 value) PDE9
[6] = Table B, read-out: Inhibiting Activity IC50 PDE5
[7] = Table B, read-out: Inhibiting Activity IC50 PDE9

Compound	IC50 [1, 4] [nM]	IC50 [2, 5] [nM]	also measured
Cc1c(C(=O)O)sc2nc(Cc3cccs3)[nH]c(=O)c12 [A-2, 5-Methyl-4-oxo-2-(thiophen-2-ylmethyl)-3,4-dihydrothieno-[2,3-d]pyrimidine-6-carboxylic acid]	21100	40	Frequency of occurrence of uninhibited contraction after administration ([3]; 1 mg/kg): 0.47 times/min; Frequency of occurrence of uninhibited contraction volume change ([3]; 1 mg/kg): −0.44 times/min; Residual urine volume after administration ([3]; 1 mg/kg): 1.23 mL; Residual urine volume volume change ([3]; 1 mg/kg): -0.04 mL; Frequency of occurrence of uninhibited contraction after administration ([3]; 10 mg/kg): 0.78 times/min; Frequency of occurrence of uninhibited contraction volume change ([3]; 10 mg/kg): −0.13 times/min; Residual urine volume after administration ([3]; 10 mg/kg): 1.02 mL; Residual urine volume volume change ([3]; 10 mg/kg): -0.25 mL
Cc1c(C(=O)O)sc2nc(Cc3ccccc3)[nH]c(=S)c12 [A-24, 2-Benzyl-5-methyl-4-thioxo-3,4-dihydrothieno[2,3-d]-pyrimidine-6-carboxylic acid]	642	13	–
Cc1c(C(=O)O)sc2nc(Cc3cccc(Br)c3)[nH]c(=S)c12 [A-25, 2-(3-Bromobenzyl)-5-methyl-4-thioxo-3,4-dihydrothieno-[2,3-d]pyrimidine-6-carboxylic acid]	712	11	–
Cc1c(C(=O)O)sc2nc(Cc3cccc(C(F)(F)F)c3)[nH]c(=S)c12 [A-27, 5-Methyl-4-thioxo-2-(3-trifluoromethylbenzyl)-3,4-dihydrothieno[2,3-d]pyrimidine-6-carboxylic acid]	3510	6	–
Cc1c(C(=O)O)sc2nc(Cc3ccc(Cl)c(Cl)c3)[nH]c(=S)c12 [A-28, 2-(3,4-Dichlorobenzyl)-5-methyl-4-thioxo-3,4-dihydrothieno-[2,3-d]pyrimidine-6-carboxylic acid]	73	4	–
Cc1c(C(=O)O)sc2nc(Cc3ccc(F)c(Cl)c3)[nH]c(=S)c12 [A-29, 2-(3-Chloro-4-fluorobenzyl)-5-methyl-4-thioxo-3,4-dihydrothieno[2,3-d]pyrimidine-6-carboxylic acid]	495	7	–
Cc1c(C(=O)O)sc2nc(CC3=CCCCC3)[nH]c(=S)c12 [A-30, 2-(Cyclohex-1-enylmethyl)-5-methyl-4-thioxo-3,4-dihydrothieno[2,3-d]pyrimidine-6-carboxylic acid]	70	48	–
O=C(O)c1cc2c(=S)[nH]c(Cc3ccccc3)nc2s1 [A-32, 2-Benzyl-4-thioxo-3,4-dihydrothieno[2,3-d]pyrimidine-6-carboxylic acid]	8870	11	–
O=C(O)c1cc2c(=S)[nH]c(Cc3ccc(Cl)c(Cl)c3)nc2s1 [A-33, 2-(3,4-Dichlorobenzyl)-4-thioxo-3,4-dihydrothieno[2,3-d]-pyrimidine-6-carboxylic acid]	721	5	–
Cc1c(C(=O)O)sc2nc(Cc3ccccc3)[nH]c(=O)c12 [A-34]	10000	35	–
O=C(O)c1ccc2c(=O)[nH]c(Cc3cccc(Cl)c3)nc2c1 [B-1, 2-(3-Chlorobenzyl)-4-oxo-3,4-dihydroquinazoline-7-carboxylic acid]	–	–	IC50 [1, 6]: 6210 nM; IC50 [2, 7]: 18 nM
O=C(O)c1ccc2c(=O)[nH]c(Cc3ccc(Cl)c(Cl)c3)nc2c1 [B-2, 2-(3,4-Dichlorobenzyl)-4-oxo-3,4-dihydroquinazoline-7-carboxylic acid]	–	–	IC50 [1, 6]: 1440 nM; IC50 [2, 7]: 35 nM
CC(C)c1ncc2c(=O)[nH]c3cc(Cl)ccc3n12 [C-1, 7-Chloro-1-isopropylimidazo[1,5-a]quinoxalin-4 (5H)-one]	1260	10	–
CC(C)c1ncc2c(=O)[nH]c3cc(C(=O)N(C)C)ccc3n12 [C-2, 1-Isopropyl-N,N-dimethyl-4-oxo-4,5-dihydroimidazo[1,5-a]-quinoxaline-7-carboxamide]	> 10000	42	–
COc1cc2c(cc1C(=O)N(C)C)[nH]c(=O)c1cnc(C3CCCCC3)n12 [C-3, 1-Cyclohexyl-8-methoxy-N,N-dimethyl-4-oxo-4,5-dihydro-imidazo[1,5-a]quinoxaline-7-carboxamide]	> 10000	1.2	–
CCOc1cc2c(cc1C(=O)N(C)C)[nH]c(=O)c1cnc(C3CCCCC3)n12 [C-4]	> 10000	3.4	–
CN(C)C(=O)c1cc2[nH]c(=O)c3cnc(C4CCCCC4)n3c2cc1Cl [C-5, 8-Chloro-1-cyclohexyl-N,N-dimethyl-4-oxo-4,5-dihydroimidazo-[1,5-a]quinoxaline-7-carboxamide]	> 10000	3	–
O=C(c1cc2[nH]c(=O)c3cnc(C4CCCCC4)n3c2cc1Cl)N1CCN(CCO)CC1 [C-6, 1-[(8-Chloro-1-cyclohexyl-4-oxo-4,5-dihydroimidazo[1,5-a]-quinoxalin-7-yl)carbonyl]-4-(2-hydroxyethyl)piperazine]	7540	8	–
CCc1ccc2c(c1)[nH]c(=O)c1cnc(CCC(=O)O)n12 [C-7, 3-(7-Ethyl-4-oxo-4,5-dihydroimidazo[1,5-a]quinoxalin-1-yl)-propionic acid]	> 10000	2	–
O=C(O)CCc1ncc2c(=O)[nH]c3cc(C(F)(F)F)ccc3n12 [C-8, 3-(4-Oxo-7-trifluoromethyl-4,5-dihydroimidazo[1,5-a]-quinoxalin-1-yl)propionic acid]	6370	2	–
O=C(O)CCc1ncc2c(=O)[nH]c3cc(Br)ccc3n12 [C-9, 3-(7-Bromo-4-oxo-4,5-dihydroimidazo[1,5-a]quinoxalin-1-yl)-propionic acid]	2810	3	–
O=C(O)/C=C/c1ccc2c(=O)[nH]c3cc(C(F)(F)F)ccc3n12 [C-10, (E)-3-(4-oxo-7-trifluoromethyl-4,5-dihydropyrrolo[1,2-a]-quinoxalin-1-yl)acrylic acid]	4560	8	–
